melting point: 253 to 254 °C
SMILES: CCC(=C(c1ccc(O)cc1)c1ccc(O)cc1)c1ccc(OCC(=O)O)c(OC)c1 [Example 4, {[4-[1-Ethyl-2,2-bis(4-hydroxyphenyl)ethenyl]-2-(methyloxy)phenyl]oxy}acetic acid]

Reference: patent US20080319078A1, “Triphenylethylene Compounds Useful as Selective Estrogen Receptor Modulators” (priority 2005, published 2008)
